Measurements taken from PMC4515242, “ESR and X-ray Structure Investigations on the Binding and Mechanism of Inhibition of the Native State of Myeloperoxidase with Low Molecular Weight Fragments” (Applied Magnetic Resonance, 2015).

Tests used:
hMPO [1] = target: T1, hMPO (Homo sapiens, UniProt P05164); experiment: Reversible binding assay (filtration and ESR after washing); settings: bound complex washed with buffer, then ESR at 4 K
T1 construct: purchased Biodesign A31804H
T1 sequence (P05164 49-745): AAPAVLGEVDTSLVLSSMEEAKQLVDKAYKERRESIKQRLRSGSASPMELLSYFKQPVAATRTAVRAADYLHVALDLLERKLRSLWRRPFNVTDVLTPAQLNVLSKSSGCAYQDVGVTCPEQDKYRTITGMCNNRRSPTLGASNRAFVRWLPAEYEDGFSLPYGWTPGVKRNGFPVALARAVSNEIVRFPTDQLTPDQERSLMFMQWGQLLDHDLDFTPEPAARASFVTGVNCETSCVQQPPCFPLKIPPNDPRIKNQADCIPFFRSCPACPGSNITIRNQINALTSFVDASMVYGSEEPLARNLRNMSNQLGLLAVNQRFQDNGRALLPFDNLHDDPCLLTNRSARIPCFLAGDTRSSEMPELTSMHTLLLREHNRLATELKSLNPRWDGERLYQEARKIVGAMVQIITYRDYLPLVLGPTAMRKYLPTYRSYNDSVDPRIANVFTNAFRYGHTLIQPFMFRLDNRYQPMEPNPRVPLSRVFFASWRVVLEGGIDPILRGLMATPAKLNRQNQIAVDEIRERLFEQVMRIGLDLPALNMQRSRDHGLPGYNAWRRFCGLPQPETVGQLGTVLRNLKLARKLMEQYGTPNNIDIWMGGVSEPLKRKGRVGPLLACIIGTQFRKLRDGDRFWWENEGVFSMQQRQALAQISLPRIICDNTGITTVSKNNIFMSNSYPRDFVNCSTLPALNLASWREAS
Procedure: We performed the following two assays for independently confirming the reversibility of binding. In the filtration method, hMPO stock (1.5 mg/ml) is diluted to 5 μg/ml with 20 mM phosphate buffer pH 7.4, 10 % glycerol (no gelatin). 120 μl of this solution is mixed with an equal volume of the compounds at a concentration of 30 μM (final concentration […]), followed by mixing in the plate and incubation for 15 min. at room temperature. 120 μl aliquot of this solution is transferred into separate YM30 Micron filter units and centrifuged 6 min at 9000 rpm, followed by the addition of 300 μl of the buffer and further centrifugation for 12 min. at 9000 rpm. Wash and centrifuge cycles are repeated 2 more times with 300 μl buffer, each followed by 12 min. centrifugation steps. The protein left on the membrane is mixed with the PB buffer to a final volume of 120 μl and subjected to Alpha screen method as described before to probe the nitration of Apo A1 peptide substrate which is taken as a confirmation of the restoration of the catalytic activity of the protein.
In the ESR protocol, the methodology of Hori et al. was applied with some modifications.The protocol followed is similar to the binding assay except that a higher concentration of hMPO (9.2 μM final) is used. This is necessary as multiple washings followed by dilutions lead to considerable loss of the enzyme due to its retention on the membrane. After 5 min of incubation in the eppendorf at room temperature, the contents were transferred to an Amicon Ultra-4 tube (5 ml capacity) and filled with 4 ml of 0.1 M sodium acetate buffer (containing 50 mM NaCl) pH 6.0. Using spin conditions of 4000×g in a swinging bucket rotor at 20 °C, the samples are washed repeatedly (2×) followed with a final wash containing 1 ml of the sodium acetate buffer (chloride free) + 25 % n-propanol and then concentrated. The concentrated solution ca. 300 μl is transferred to ESR quartz tubes and measured at 4 K. A higher concentration of MPO in these reversible binding assays enabled a good ESR signal over noise from the washed (3X) sample.

hMPO [2] = target: T1, hMPO; experiment: Alpha screen assay: inhibition of MPO-initiated nitration of the Apo-A1 peptide ([…]); type: biochemical; settings: MPO 11.8 nM, pH 7.4, 45 min RT
Procedure: In a typical experiment, MPO (11.8 nM final concentration) in 20 mM phosphate buffer pH 7.4, 10 % glycerol and 0.005 % gelatin (PB) is added to each well of a multi-well plate containing 20 μl PB ± compound (final concentration of DMSO = 0.9 %). The reaction is started by the addition of 20 μl PB containing 1.5 μM ApoAI peptide substrate, 300 μM diethylenetriaminepentaacetic acid (DTPA), 300 μM sodium nitrite, and 30 μM H2O2. The total reaction volume is 60 μl. The plates are incubated with agitation for 45 min at RT. The reaction is terminated with the addition of 20 μl of a stop solution containing 11.2 nM rabbit anti-nitrotyrosine antibody (final conc. of 2.8 nM), 100 μg/ml streptavidin donor beads, and 100 μg/ml protein A acceptor beads (final concentration of […]), FBS (1.6 % final concentration) in Superblock buffer. The plates are sealed, incubated in the dark for 1 h, and read on a Packard Fusion alpha plate reader.
Through a chloride independent pathway, MPO catalyzes the one electron oxidation of nitrite ions to nitrogen dioxide radicals which then […] protein amino acids like Tyrosine. We used the Apo-A1 peptide substrate ([…]) to follow the nitration of the Tyrosine (indicated by Y in the scheme below): MPO+H2O2→Compound INO2-+Compound I→NO2·+Compound II [drawing 1] Our initial experiments focused on identifying inhibitors that bind to the heme to inhibit the above catalytic action. A representative set of inhibitors is collected in Fig. 1a (strong binders, vide infra) and b (non binders, vide infra).

Row | reversibility of the binding (hMPO [1]) | IC50 (hMPO [2]) | Compound
1 | Reversible in its action | 520 nM | O=C(O)c1nn(-c2ccccc2)cc1O [LSN17948]
2 | Reversible in its action | 669 nM | O=C(O)c1nn(-c2cccc3ccccc23)cc1O [LSN2944556]
3 | Reversible in its action | 674 nM | O=C(O)c1n[nH]c(-c2ccccc2)c1O [LSN87637]
